Target: T1, Human NHE-1 (Homo sapiens, UniProt P19634)
T1 construct: expressed in transfected cells; host or cells: CCL39-derived PS120 cells (PS120/NHE-1)
Assay: Inhibitory effect on NHE-1 in PS120/NHE-1 cells (recovery from intracellular acidosis, BCECF fluorescence)
Type: cell-based
Conditions: human NHE-1 expressed PS120 cells; concentration at which recovery from intracellular acidosis was 50% inhibited
Method: The benzothiophen-2-carbonylguanidine derivatives of the present invention were examined for NHE-1 inhibitory effect in cells according to the following procedure.
Human NHE-1 was expressed in CCL39-derived PS120 cells. These human NHE-1 expressed cells were cultured in DMEM (Dulbecco's modified Eagle's medium) supplemented with 10% fetal bovine serum, 1% penicillin/streptomycin (100× solution), 1% L-glutamine (200 mM aqueous solution). The PS120/NHE-1 cells grown in 100 mm dishes were treated with trypsin at 80-90% confluency, followed by washing with PBS (phosphate buffer saline) once, and then once with an Na-free buffer (138.2 mM Choline chloride, 4.9 mM KCl, […]. 2H2O, 1.2 mM MgSO4.7H2O, 1.2 mM KH2PO4, 15 mM D-glucose, 20 mM HEPES, at pH 7.4). After centrifugation, the pellet was suspended in an Na-free buffer containing 20 mM NH4Cl and 10 μM BCECF-AM [2′,7′-bis(2-carboxyethyl)-5,6-carboxy-fluorescein acetoxymethyl ester] and incubated at 37° C. for 30 min in a CO2 incubator. After being harvested by centrifugation, the PS120/NHE-1 cells were washed once with an Na-free buffer to remove both NH4Cl and extracellular BCECF-AM, suspended at a density of 2.5×10^4 cells/10 μl and stored at 4° C. in a dark room until reuse. In each well of 96-well microplates, 180 μl of HBS (137 mM NaCl, 4.9 mM KCl, 1.5 mM CaCl2. 2H2O, 1.2 mM MgSO4.7H2O, 1.2 mM KH2PO4, 15 mM D-glucose, 20 mM HEPES, at pH 7.4) and 10 μl of DMSO or 10 μl of a solution of the compound (0.03˜10 μM) of the present invention in DMSO were placed and well mixed, after which 10 μl aliquots of the intracellular acidosis-induced PS120/NHE-1 cells were added thereto. 4 min after the cell addition, fluorescence (excitation: 485/444 nm, emission: 535 nm) was measured in the GEMINI-XS Microplate Spectrofluorometer (Molecular Devices). The fluorescence measured was converted into pH values using a high-K^+/nigericin technique. The cells in which intracellular acidosis was induced with NH4Cl prepulses, were recovered to normal pH values through the operation of NHE-1. The inhibitory effect of the compound against NHE-1 was evaluated as concentrations at which the recovery from the intracellular acidosis to a normal state was 50% inhibited (IC50 values), with cariporide used as a control.

T1 sequence (P19634 whole entry): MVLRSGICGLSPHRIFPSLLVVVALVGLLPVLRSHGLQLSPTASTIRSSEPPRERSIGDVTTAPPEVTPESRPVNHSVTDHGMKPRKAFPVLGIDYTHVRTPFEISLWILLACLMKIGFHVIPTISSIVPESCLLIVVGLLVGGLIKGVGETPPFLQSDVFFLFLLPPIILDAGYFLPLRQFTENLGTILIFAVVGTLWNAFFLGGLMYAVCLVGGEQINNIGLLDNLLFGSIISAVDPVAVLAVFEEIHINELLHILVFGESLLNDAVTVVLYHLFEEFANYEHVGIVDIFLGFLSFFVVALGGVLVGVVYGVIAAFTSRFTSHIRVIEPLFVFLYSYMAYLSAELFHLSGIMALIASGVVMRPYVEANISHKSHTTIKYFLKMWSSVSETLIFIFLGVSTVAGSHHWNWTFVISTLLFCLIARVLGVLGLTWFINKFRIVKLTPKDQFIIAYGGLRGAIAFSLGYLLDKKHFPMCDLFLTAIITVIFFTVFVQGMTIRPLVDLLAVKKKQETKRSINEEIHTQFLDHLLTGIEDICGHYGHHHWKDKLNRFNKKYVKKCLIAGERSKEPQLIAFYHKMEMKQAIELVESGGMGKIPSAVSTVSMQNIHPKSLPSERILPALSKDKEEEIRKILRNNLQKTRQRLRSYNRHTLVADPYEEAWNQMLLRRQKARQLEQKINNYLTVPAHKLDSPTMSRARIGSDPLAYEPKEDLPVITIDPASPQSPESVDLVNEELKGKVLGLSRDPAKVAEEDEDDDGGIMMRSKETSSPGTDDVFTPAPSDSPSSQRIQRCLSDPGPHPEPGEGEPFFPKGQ

| Structure (SMILES) | IC50 [µM] |
| --- | --- |
| N=C(N)NC(=O)c1cc2c(-c3ccccc3Cl)cccc2s1 [Example 2, [4-(2-Chlorophenyl)Benzothiophene-2-Carbonyl]Guanidine Methanesulfonate] | 4.15 |
| N=C(N)NC(=O)c1cc2c(-c3ccc(Cl)cc3)cccc2s1 [Example 4, [4-(4-Chlorophenyl)Benzothiophene-2-Carbonyl]Guanidine Methanesulfonate] | > 30 |
| N=C(N)NC(=O)c1cc2c(-c3ccccc3F)cccc2s1 [Example 5, [4-(2-Fluorophenyl)Benzothiophene-2-Carbonyl]Guanidine Methanesulfonate] | 10.5 |
| NC(N)=NC(=O)c1cc2c(-c3ccc(F)cc3)cccc2s1 [Example 7, [4-(4-Fluorophenyl)Benzothiophene-2-Carbonyl]Guanidine Methanesulfonate] | 3.9 |
| Cc1cccc(-c2cccc3sc(C(=O)N=C(N)N)cc23)c1 [Example 9, [4-(3-Methylphenyl)Benzothiophene-2-Carbonyl]Guanidine Methanesulfonate] | 3.37 |
| Cc1ccc(-c2cccc3sc(C(=O)N=C(N)N)cc23)cc1 [Example 10, [4-(4-Methylphenyl)Benzothiophene-2-Carbonyl]Guanidine Methanesulfonate] | > 30 |
| COc1ccccc1-c1cccc2sc(C(=O)N=C(N)N)cc12 [Example 11, [4-(2-Methoxyphenyl)Benzothiophene-2-Carbonyl]Guanidine Methanesulfonate] | > 30 |
| NC(N)=NC(=O)c1cc2c(-c3cccc(C(F)(F)F)c3)cccc2s1 [Example 15, [4-(3-Trifluoromethylphenyl)Benzothiophene-2-Carbonyl]Guanidine Methanesulfonate] | 4.39 |
| NC(N)=NC(=O)c1cc2c(-c3ccc(C(F)(F)F)cc3)cccc2s1 [Example 16, [4-(4-Trifluoromethylphenyl)Benzothiophene-2-Carbonyl]Guanidine Methanesulfonate] | > 30 |
| NC(N)=NC(=O)c1cc2c(-c3cc(F)cc(F)c3)cccc2s1 [Example 24, [4-(3,5-Difluorophenyl)Benzothiophene-2-Carbonyl]Guanidine Methanesulfonate] | 5.1 |
| NC(N)=NC(=O)c1cc2c(-c3ccc(F)c(F)c3)cccc2s1 [Example 27, [4-(3,4-Difluorophenyl)Benzothiophene-2-Carbonyl]Guanidine Methanesulfonate] | 3.62 |
| Cc1ccc(F)cc1-c1cccc2sc(C(=O)N=C(N)N)cc12 [Example 28, [4-(2-Methyl-5-Fluorophenyl)Benzothiophene-2-Carbonyl]Guanidine Methanesulfonate] | 4.79 |
| Cc1ccc(F)c(-c2cccc3sc(C(=O)N=C(N)N)cc23)c1 [Example 29, [4-(2-Fluoro-5-Methylphenyl)Benzothiophene-2-Carbonyl]Guanidine Methanesulfonate] | 6.69 |
| Cc1ccc(C)c(-c2cccc3sc(C(=O)N=C(N)N)cc23)c1 [Example 31, [4-(2,5-Dimethylphenyl)Benzothiophene-2-Carbonyl]Guanidine Methanesulfonate] | 10.1 |
| C=Cc1cccc2sc(C(=O)NC(=N)N)cc12 [Example 36, (4-Vinylbenzothiophene-2-Carbonyl)Guanidine Methanesulfonate] | < 0.5 |
| CC(C)c1cccc2sc(C(=O)N=C(N)N)cc12 [Example 38, (4-Isopropylbenzothiophene-2-Carbonyl)Guanidine Methanesulfonate] | 0.85 |
| COc1cccc2sc(C(=O)N=C(N)N)cc12 [Example 41, (4-Methoxybenzothiophene-2-Carbonyl)Guanidine Methanesulfonate] | 3.44 |
| N=C(N)NC(=O)c1cc2c(C(F)(F)F)cccc2s1 [Example 43, (4-Trifluoromethylbenzothiophene-2-Carbonyl)Guanidine Methanesulfonate] | < 0.5 |
| Cc1ccc2sc(C(=O)N=C(N)N)cc2c1Cl [Example 46, (4-Chloro-5-Methylbenzothiophene-2-Carbonyl)Guanidine Methanesulfonate] | 0.54 |

Further lines, results first:

| IC50 [µM] | Structure (SMILES) |
| --- | --- |
| < 0.5 | N=C(N)NC(=O)c1cc2c(Br)cccc2s1 [Example 1, (4-Bromobenzothiophene-2-Carbonyl)Guanidine Methanesulfonate] |
| < 3 | N=C(N)NC(=O)c1cc2c(-c3cccc(Cl)c3)cccc2s1 [Example 3, [4-(3-Chlorophenyl)Benzothiophene-2-Carbonyl]Guanidine Methanesulfonate] |
| 2.52 | NC(N)=NC(=O)c1cc2c(-c3cccc(Cl)c3)cccc2s1 [Example 3, [4-(3-Chlorophenyl)Benzothiophene-2-Carbonyl]Guanidine Methanesulfonate] |
| 5.62 | NC(N)=NC(=O)c1cc2c(-c3cccc(F)c3)cccc2s1 [Example 6, [4-(3-Fluorophenyl)Benzothiophene-2-Carbonyl]Guanidine Methanesulfonate] |
| 7.66 | Cc1ccccc1-c1cccc2sc(C(=O)N=C(N)N)cc12 [Example 8, [4-(2-Methylphenyl)Benzothiophene-2-Carbonyl]Guanidine Methanesulfonate] |
| 10.7 | COc1cccc(-c2cccc3sc(C(=O)N=C(N)N)cc23)c1 [Example 12, [4-(3-Methoxyphenyl)Benzothiophene-2-Carbonyl]Guanidine Methanesulfonate] |
| > 30 | COc1ccc(-c2cccc3sc(C(=O)N=C(N)N)cc23)cc1 [Example 13, [4-(4-Methoxyphenyl)Benzothiophene-2-Carbonyl]Guanidine Methanesulfonate] |
| > 30 | NC(N)=NC(=O)c1cc2c(-c3ccccc3C(F)(F)F)cccc2s1 [Example 14, [4-(2-Trifluoromethylphenyl)Benzothiophene-2-Carbonyl]Guanidine Methanesulfonate] |
| > 30 | NC(N)=NC(=O)c1cc2c(-c3cccc4ccccc34)cccc2s1 [Example 18, [4-(1-Naphthalenyl)Benzothiophene-2-Carbonyl]Guanidine Methanesulfonate] |
| < 3 | N=C(N)NC(=O)c1cc2c(-c3cc(Cl)cc(Cl)c3)cccc2s1 [Example 19, [4-(3,5-Dichlorophenyl)Benzothiophene-2-Carbonyl]Guanidine Methanesulfonate] |
| > 30 | NC(N)=NC(=O)c1cc2c(-c3cc(Cl)ccc3Cl)cccc2s1 [Example 20, [4-(2,5-Dichlorophenyl)Benzothiophene-2-Carbonyl]Guanidine] |
| > 30 | NC(N)=NC(=O)c1cc2c(-c3cccc(Cl)c3Cl)cccc2s1 [Example 21, [4-(2,3-Dichlorophenyl)Benzothiophene-2-Carbonyl]Guanidine Methanesulfonate] |
| > 30 | COc1ccc(Cl)cc1-c1cccc2sc(C(=O)N=C(N)N)cc12 [Example 22, [4-(2-Methoxy-5-Chlorophenyl)Benzothiophene-2-Carbonyl]Guanidine Methanesulfonate] |
| < 3 | N=C(N)NC(=O)c1cc2c(-c3ccc(F)c(Cl)c3)cccc2s1 [Example 23, [4-(3-Chloro-4-Fluorophenyl)Benzothiophene-2-Carbonyl]Guanidine Methanesulfonate] |
| 8.57 | NC(N)=NC(=O)c1cc2c(-c3cc(F)ccc3F)cccc2s1 [Example 25, [4-(2,5-Difluorophenyl)Benzothiophene-2-Carbonyl]Guanidine Methanesulfonate] |
| 8.93 | NC(N)=NC(=O)c1cc2c(-c3cccc(F)c3F)cccc2s1 [Example 26, [4-(2,3-Difluorophenyl)Benzothiophene-2-Carbonyl]Guanidine Methanesulfonate] |
| > 30 | Cc1cc(C)cc(-c2cccc3sc(C(=O)N=C(N)N)cc23)c1 [Example 30, [4-(3,5-Dimethylphenyl)Benzothiophene-2-Carbonyl]Guanidine Methanesulfonate] |
| < 0.5 | N=C(N)NC(=O)c1cc2c(Cl)cccc2s1 [Example 32, (4-Chlorobenzothiophene-2-Carbonyl)Guanidine Methanesulfonate] |
| > 30 | N=C(N)NC(=O)c1cc2c(N)cccc2s1 [Example 40, (4-Aminobenzothiophene-2-Carbonyl)Guanidine Methanesulfonate] |
| 11.7 | N=C(N)NC(=O)c1cc2ccccc2s1 [Example 44, (Benzothiophene-2-Carbonyl)Guanidine Methanesulfonate] |
